Structures can show the parent of a compound that is named as a salt. Blank lines part the entries; values can stand above or below the compound they belong to.
What was measured:
[1] = In vitro release study of glutathione, dialysis set up; type: physicochemical; conditions: after 7 h, pH 7.4
Description: The comparative in vitro release study of glutathione encapsulated in the inventive liposome and non-encapsulated glutathione (control) was performed using the dialysis set up. […] A control experiment was performed simultaneously in which the non-encapsulated glutathione solution was dialyzed. […] The concentration of glutathione in the samples was determined using the validated HPLC method.
The mobile phase consisted of 50 mM phosphate buffer. The injection volume was 5 μL. The detection was carried out at 230 nm.

[2] = Comparative oral bioavailability of vitamin C, crossover study in healthy volunteers; conditions: human, in vivo
Description: The inventive liposome comprised at least 40% w/w Vitamin C.
A group of 12 healthy volunteers were screened on Visit 1 to confirm their eligibility. Subjects fulfilling the eligibility criteria were randomized into 1 of 2-treatment sequences on Visit 2. There was a washout period of 7 days each between the 2 dosing days. […] Subjects returned to the study center for the second period. On the morning of Day 1, in each period, subjects in a fasting state (at least 10 hours before dosing) received one 600 mg capsule orally of their assigned formulation (Table 2) as per randomization scheme, with 200±2 mL of water at room temperature. The study duration was approximately 12 days (2 dosing days and 1 washout period of 7±1 days). A total of 10 blood samples were collected in each of the two study periods. The pre-dose samples (2 mL) were collected within 1 hour before dosing. The post-dose samples (1×2 mL) were collected at 30 min, 60 min, 2, 3, 4, 5, 6, 8 and 12 hours after dosing in vacuum tubes containing K2 EDTA. All blood samples were collected from an ante-cubital vein or any suitable forearm vein using an indwelling cannula. Before each blood sample is drawn, 1 mL of blood was discarded so as to prevent the saline diluted blood and heparin from interfering with the analysis.
Plasma concentrations were measured using ultra performance liquid chromatographyelectrospray ionization-tandem mass spectrometry (UPLC-ESI-MS/MS), gas chromatography mass spectrometry (GC-MS/MS) and High-Performance Liquid Chromatography (HPLC). All the pharmacokinetic parameters were compared between the two treatment groups using Pair-t-test with 5% level of significance. All statistical analysis was performed using R statistical software version 4.2.1.

[3] = In vitro release study of vitamin C, dialysis set up; type: physicochemical; conditions: after 8 h, PBS pH 7.4, 37° C.
Description: The comparative in vitro release study of vitamin C encapsulated in the inventive liposome versus and non-encapsulated vitamin C (control) was performed using the dialysis set up. […] A weighed quantity of encapsulated vitamin C (50 mg) was suspended in 10 mL of PBS and transferred into the dialysis bag (donor compartment). […] A control experiment was performed simultaneously in which unencapsulated vitamin C solution was dialyzed. […] The absorbance of the samples was measured at 295 nm. The concentration of vitamin C in the samples was determined using a standard curve.

[4] = after 3 h; dialysis, PBS pH 7.4, 37° C.
Description: The comparative in vitro release study of caffeine encapsulated in the inventive liposome versus plain caffeine (control) was performed using a dialysis set up. Prior to the diffusion experiment, the cellulose acetate dialysis membrane (Sigma Aldrich, Molecular weight cut-off (MWCO) 12 kDa) was soaked in phosphate buffered saline (PBS, pH 7.4) for 12 h. A weighed quantity of liposomal caffeine (50 mg) was suspended in 10 mL of PBS and transferred into the dialysis bag (donor compartment). The dialysis bag was placed in a beaker containing 100 mL of PBS (receptor compartment). The setup was incubated at 120 rpm for 8 h in a 37° C. shaker incubator.
A control experiment was performed simultaneously in which a plain caffeine solution was dialyzed. A 1 mL aliquot of PBS in the receptor compartment was sampled at different time points and an equal quantity of fresh PBS was replaced in the compartment after each withdrawal. The caffeine content in the samples were quantified using HPLC.

in vivo = conditions: male, Wistar, rat, plasma, po, 60 mg/kg
[5] = Pharmacokinetics of ursolic acid after single oral dose; conditions: ursolic acid in rat plasma
[6] = In vitro release study of berberine, dialysis set up; type: physicochemical; conditions: after 6 h, pH 7.4
[7] = Pharmacokinetic study of berberine after single oral dose; type: in vivo, Wistar rats; conditions: male, Wistar, berberine in rat plasma

glutathione cumulative release % [1]: 96.86%
Structure (SMILES): N[C@@H](CCC(=O)N[C@@H](CS)C(=O)NCC(=O)O)C(=O)O [non-encapsulated glutathione, glutathione]

AUC(0-inf) [2]: 6260 ± 4560 ng·h/mL | AUC(0-t) [2]: 4130 ± 1740 ng·h/mL | Cmax [2]: 970 ng/mL | MRT [2]: 9.3 ± 8.42 h | Tmax [2]: 2.67 ± 1.07 h | Plasma concentration of vitamin C, Mean ([2]; 0.5 h): 219.99 | Plasma concentration of vitamin C, Mean ([2]; 1 h): 502.39 | Plasma concentration of vitamin C, Mean ([2]; 2 h): 728.44 | Plasma concentration of vitamin C, Mean ([2]; 3 h): 680.46 | Plasma concentration of vitamin C, Mean ([2]; 4 h): 456.28 | Plasma concentration of vitamin C, Mean ([2]; 5 h): 405.53 | Plasma concentration of vitamin C, Mean ([2]; 6 h): 338.54 | Plasma concentration of vitamin C, Mean ([2]; 8 h): 219.14 | Plasma concentration of vitamin C, Mean ([2]; 12 h): 162.08
Structure (SMILES): O=C1O[C@H]([C@@H](O)CO)C(O)=C1O [unformulated Vitamin C, vitamin C]

vitamin C released [3]: 67.54% | caffeine released [4]: 100% | AUC(0-t) (in vivo): 877 ± 44.6 ng·h/mL | Cmax (in vivo): 201 ± 42.4 ng/mL | Tmax (in vivo): 0.75 ± 0.35 h | half-life (in vivo): 4.49 ± 0.11 h | Kel [5]: 0.15 ± 0.004 h⁻¹ | maximum plasma concentration of UA [5]: 201 ± 42.43 ng/mL | Kel ([5]; listed as control): 0.15 ± 0.004 h⁻¹
Structure (SMILES): C[C@H]1[C@H](C)CC[C@]2(C(=O)O)CC[C@]3(C)C(=CC[C@@H]4[C@@]5(C)CC[C@H](O)C(C)(C)[C@@H]5CC[C@]43C)[C@H]12 [Control, ursolic acid]

berberine cumulative release % [6]: 100% | AUC(0-t) ([7]; 320 mg/kg, single oral dose): 410 ± 40 ng·h/mL | Tmax ([7]; 320 mg/kg, single oral dose): 0.25 h | half-life ([7]; 320 mg/kg, single oral dose, read-out: t½ (converted)): 7.32 ± 0.61 h | Cmax ([7]; single oral dose (600 mg/kg encapsulated; 320 mg/kg berberine HCl)): 15.5 ± 9.66 ng/mL
Structure (SMILES): COc1ccc2cc3[n+](cc2c1OC)CCc1cc2c(cc1-3)OCO2 [Control (Unformulated), berberine HCl]

Reference: patent US20240374560A1, “FIBER-ENHANCED LIPOSOME AND METHODS” (Vidya Herbs, Inc., priority 2023, published 2024)
